The results in this text go back to PMC6694155, “PTPσ inhibitors promote hematopoietic stem cell regeneration” (Nature Communications, 2019).

Values joined by “and” are separate entries in the source; they are usually repeats but may differ in a detail not shown here. Equal values may be shown once.

Assay [1] concerns the target T1, DUSP22 (Dual Specificity Phosphatase 22) (Homo sapiens, UniProt Q9NRW4).
T1 construct: purchased Eurofins Pharma Discovery Services UK
Put plainly: PhosphataseProfiler screen: DUSP22. The conditions noted are these: replicates. The class given is biochemical. The method, then:
(§1) Compound DJ001 was evaluated in a PhosphataseProfiler™ screen at 10 μM and 1 μM (2.7 μg/mL and 0.27 μg/mL) concentrations at Eurofins Pharma Discovery Services UK (Study number UK022-0004033) against a panel of 21 Phosphatases. In each experiment, the respective reference antagonist/agonist was tested directly with DJ001 and the data were compared with historical values determined at Eurofins. DJ001 compound inhibition was calculated as percentage inhibition of the enzymatic activity compared with control.

In assay [2] the target is T2, MKP5 (Mitogen-activated Protein Kinase Phosphatase 5) (Homo sapiens, UniProt Q9Y6W6).
T2 construct: purchased Eurofins Pharma Discovery Services UK
T2 sequence (Q9Y6W6 whole entry, species assumed): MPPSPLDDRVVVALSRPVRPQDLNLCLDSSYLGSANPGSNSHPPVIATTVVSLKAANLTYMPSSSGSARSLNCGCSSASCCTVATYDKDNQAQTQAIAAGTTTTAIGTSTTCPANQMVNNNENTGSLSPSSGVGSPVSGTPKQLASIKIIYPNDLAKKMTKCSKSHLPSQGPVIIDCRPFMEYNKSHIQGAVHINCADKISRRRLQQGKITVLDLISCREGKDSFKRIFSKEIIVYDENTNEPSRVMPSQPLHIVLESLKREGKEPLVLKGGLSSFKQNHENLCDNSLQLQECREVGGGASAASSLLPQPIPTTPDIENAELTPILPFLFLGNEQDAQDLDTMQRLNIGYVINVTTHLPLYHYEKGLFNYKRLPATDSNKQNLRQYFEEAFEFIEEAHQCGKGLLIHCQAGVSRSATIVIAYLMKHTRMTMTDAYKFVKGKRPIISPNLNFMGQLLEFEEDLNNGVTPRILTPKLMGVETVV
Put plainly: PhosphataseProfiler screen: MKP5. Format: biochemical. The conditions noted are these: 0.27 g/mL DJ001; replicates. The method, then:
as §1

The next assay has as its target T3, Protein Phosphatase 5 (Homo sapiens, UniProt P53041).
T3 construct: purchased Eurofins Pharma Discovery Services UK
T3 sequence (P53041 1-499): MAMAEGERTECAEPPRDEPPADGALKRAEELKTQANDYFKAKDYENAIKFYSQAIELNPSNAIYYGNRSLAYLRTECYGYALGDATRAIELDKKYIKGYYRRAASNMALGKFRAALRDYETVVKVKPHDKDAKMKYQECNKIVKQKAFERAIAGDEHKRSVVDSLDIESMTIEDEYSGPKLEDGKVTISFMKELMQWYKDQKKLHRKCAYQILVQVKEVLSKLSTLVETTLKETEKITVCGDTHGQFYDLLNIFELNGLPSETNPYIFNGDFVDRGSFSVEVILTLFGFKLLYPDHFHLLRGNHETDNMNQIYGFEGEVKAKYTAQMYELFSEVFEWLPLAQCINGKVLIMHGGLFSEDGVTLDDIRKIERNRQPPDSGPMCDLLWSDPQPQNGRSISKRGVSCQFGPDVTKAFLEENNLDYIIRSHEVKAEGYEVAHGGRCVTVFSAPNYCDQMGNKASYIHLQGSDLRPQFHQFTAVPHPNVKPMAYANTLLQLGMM
Put plainly: PhosphataseProfiler screen: PP5. The class given is biochemical. The conditions noted are these: for Supplementary Figure 1: PP5 activity: replicates. The method, then: as §1

Assay [3] concerns the target T4, PTPβ (Protein Tyrosine Phosphatase Receptor beta) (Homo sapiens, UniProt P23467).
T4 construct: purchased Eurofins Pharma Discovery Services UK
Nature of the assay: PhosphataseProfiler screen: PTPβ. The class given is biochemical. The conditions noted are these: replicates. As to the method:
as §1

Assay [4] has as its target T5, TMDP (Dual Specificity Phosphatase 13) (Homo sapiens, UniProt Q9UII6).
T5 construct: purchased Eurofins Pharma Discovery Services UK
Put plainly: PhosphataseProfiler screen: TMDP. The class given is biochemical. The conditions noted are these: replicates. As to the method:
as §1

For assay [5], the system named is BM KSL cells. Nature of the assay: Annexin V/7AAD apoptosis assay of BM KSL cells from mice 24 h post 500 cGy TBI. Format: in vivo, mouse. As to the method:
Eight- to ten-week-old female C57BL/6 mice were irradiated with 500 cGy TBI followed by subcutaneous injections of 5 mg/kg DJ001 or vehicle, or 5 mg/kg DJ001 plus 40 mg/kg EHT1864. Twenty four hours after irradiation, mice were killed to collect BM cells for Annexin V apoptosis analysis. BM cells were stained with APC-Cy7-conjugated anti-mouse Sca1 (BD Biosciences, #560654, 1:100), PE-conjugated anti-ckit (BD Biosciences, #553355, 1:100), and V450 lineage cocktail (BD Biosciences, #561301, 1:10) antibodies for 30 min at 4 °C. Cells were then resuspended in 1× Annexin V binding buffer and then stained with FITC-conjugated anti-Annexin V antibody (BD Biosciences, #556547,1:50) and 7AAD antibody (BD Biosciences, #559925, 1:40)[68]. For in vitro human BM cell apoptosis assays, isolated human BM CD34^+ cells were plated into 96-well plates and then irradiated with 300 cGy. Immediately after irradiation, cells were treated with 5 μg/mL DJ001 or vehicle for 24 h and then collected for Annexin V cell apoptosis analysis. For cell cycle analysis, BM KSL cells were irradiated at 300 cGy and then treated with 1 μg/mL DJ001 or vehicle for 36 h. Subsequently, cells were resuspended in 200 μL of PBS, fixed with 1 mL of ice-cold fixation solution (0.25% Saponin, 2.5% PFA, 2% fetal calf serum (FCS) in PBS), and incubated for 30 min on ice. Cells were washed in Saponin buffer (0.25% Saponin, 2% FCS in PBS) and resuspended in 200 μL of Saponin buffer containing 20 μL of FITC-conjugated anti-Ki67 antibody (BD Biosciences, #556026, 1:10) and 1 μL of RNase (Qiagen, #19101, 100 mg/mL). After 30 min of incubation, cells were washed in Saponin buffer and resuspended for flow analysis in 200 μL of Saponin buffer containing 5 μL 7AAD (BD Biosciences, #559925, 1:40).

The subject of assay [6] is BM KSL cells; donor CD45.2+ cells. Put plainly: In vivo BrdU incorporation analysis. More on the design: species or system mouse. As to the method:
For BrdU incorporation analysis in BM KSL cells in vivo, adult C57Bl/6 mice were irradiated with 750 cGy TBI and treated with 5 mg/kg DJ001 or vehicle daily from day + 1 to day + 10. On day + 10, mice were injected intraperitoneally with 2 mg BrdU (BD Biosciences). Sixteen hours later, BM cells were collected and stained with anti-BrdU FITC (BD Biosciences, #557891, 1:50), APC-Cy7-conjugated anti-Sca1 (BD Biosciences, #560654, 1:100), PE-conjugated anti-c-kit (BD Biosciences, #553355, 1:100), and V450 lineage cocktail (BD Biosciences, #561301, 1:10). We repeated this BrdU incorporation analysis on donor CD45.2^+ cells at day + 7 and day + 21 following competitive transplantation into recipient CD45.1^+ mice.
For orientation: Incorporation of labelled thymidine or its analogues reports DNA synthesis.

Assay [7] relates to BM KSL cells. Put plainly: Transendothelial migration assay. Format: cell-based, mouse. The method, then: For the transendothelial migration assay,VeraVec^TM mouse spleen ECs (Angiocrine Biosciences) were cultured to confluence in […] pore transwells (Corning Incorporated). Transwells were then seeded with 50,000 sorted BM KSL cells in IMDM with 10% FBS, 1% pen-strep, 20 ng/mL TPO, 125 ng/mL SCF, and 50 ng/mL Flt3 ligand with or without 1 µg/mL of DJ001. SDF-1, 500 ng/mL (R&D Systems), was added to the bottom chamber of the transwell. At 18 h post incubation, cells in the bottom chamber were collected and cell counts were performed.

The test system of assay [8] is BM KSL cells. Nature of the assay: Cell cycle analysis (Ki67/7AAD) of BM KSL cells. The class given is cell-based, mouse. The conditions noted are these: non-irradiated BM KSL cells, 36 hours.

T4 sequence (P23467 23-1997): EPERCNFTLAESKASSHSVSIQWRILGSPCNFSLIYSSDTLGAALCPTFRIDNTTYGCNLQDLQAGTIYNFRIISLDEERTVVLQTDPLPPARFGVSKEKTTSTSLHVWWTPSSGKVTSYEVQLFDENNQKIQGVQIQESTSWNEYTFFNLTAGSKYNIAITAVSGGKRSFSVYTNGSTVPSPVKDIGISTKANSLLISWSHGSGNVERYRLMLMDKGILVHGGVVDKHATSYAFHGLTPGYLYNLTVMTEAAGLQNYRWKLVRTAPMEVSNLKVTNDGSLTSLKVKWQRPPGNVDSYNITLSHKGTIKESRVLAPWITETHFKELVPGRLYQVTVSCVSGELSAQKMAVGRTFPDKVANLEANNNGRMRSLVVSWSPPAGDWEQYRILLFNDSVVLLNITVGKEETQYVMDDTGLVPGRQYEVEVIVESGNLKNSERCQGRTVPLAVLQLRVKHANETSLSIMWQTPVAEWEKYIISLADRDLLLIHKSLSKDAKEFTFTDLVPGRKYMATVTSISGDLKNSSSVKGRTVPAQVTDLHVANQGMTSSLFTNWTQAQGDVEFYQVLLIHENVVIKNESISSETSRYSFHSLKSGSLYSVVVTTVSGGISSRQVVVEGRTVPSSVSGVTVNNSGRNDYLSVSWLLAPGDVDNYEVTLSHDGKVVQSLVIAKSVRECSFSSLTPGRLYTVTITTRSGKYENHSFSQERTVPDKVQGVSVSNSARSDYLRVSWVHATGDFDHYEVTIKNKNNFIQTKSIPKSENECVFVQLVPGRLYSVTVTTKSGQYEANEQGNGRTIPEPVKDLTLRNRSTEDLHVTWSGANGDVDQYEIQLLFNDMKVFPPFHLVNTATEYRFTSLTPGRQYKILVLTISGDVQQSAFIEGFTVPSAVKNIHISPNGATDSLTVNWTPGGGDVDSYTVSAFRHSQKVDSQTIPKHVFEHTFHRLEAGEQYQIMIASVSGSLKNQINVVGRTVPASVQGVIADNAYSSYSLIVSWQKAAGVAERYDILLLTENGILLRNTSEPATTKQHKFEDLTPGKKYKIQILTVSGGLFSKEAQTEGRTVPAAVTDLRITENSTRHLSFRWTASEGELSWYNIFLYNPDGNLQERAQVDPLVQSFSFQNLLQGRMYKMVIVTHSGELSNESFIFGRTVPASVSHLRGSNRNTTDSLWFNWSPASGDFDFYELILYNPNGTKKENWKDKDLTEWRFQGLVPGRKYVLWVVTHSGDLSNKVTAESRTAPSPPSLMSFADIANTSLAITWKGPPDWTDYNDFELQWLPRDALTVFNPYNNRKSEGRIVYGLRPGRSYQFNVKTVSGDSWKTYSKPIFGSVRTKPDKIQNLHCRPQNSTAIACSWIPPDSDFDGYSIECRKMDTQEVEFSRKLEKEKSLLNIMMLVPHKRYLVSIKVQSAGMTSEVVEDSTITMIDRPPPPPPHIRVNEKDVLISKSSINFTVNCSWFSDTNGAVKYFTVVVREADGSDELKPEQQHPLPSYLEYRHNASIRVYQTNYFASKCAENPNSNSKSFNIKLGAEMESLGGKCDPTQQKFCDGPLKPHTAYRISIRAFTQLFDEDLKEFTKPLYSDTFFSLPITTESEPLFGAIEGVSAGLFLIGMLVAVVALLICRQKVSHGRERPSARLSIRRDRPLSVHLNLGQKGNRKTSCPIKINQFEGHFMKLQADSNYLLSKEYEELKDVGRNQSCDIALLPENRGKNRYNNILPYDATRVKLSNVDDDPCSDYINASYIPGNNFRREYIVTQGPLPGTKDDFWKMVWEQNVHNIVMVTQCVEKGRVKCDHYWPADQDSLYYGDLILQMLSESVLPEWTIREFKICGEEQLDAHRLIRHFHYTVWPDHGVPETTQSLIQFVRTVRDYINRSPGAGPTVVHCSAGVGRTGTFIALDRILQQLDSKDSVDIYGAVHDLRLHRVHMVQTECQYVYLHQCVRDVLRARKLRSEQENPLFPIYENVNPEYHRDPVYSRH
T1 sequence (Q9NRW4 whole entry, species assumed): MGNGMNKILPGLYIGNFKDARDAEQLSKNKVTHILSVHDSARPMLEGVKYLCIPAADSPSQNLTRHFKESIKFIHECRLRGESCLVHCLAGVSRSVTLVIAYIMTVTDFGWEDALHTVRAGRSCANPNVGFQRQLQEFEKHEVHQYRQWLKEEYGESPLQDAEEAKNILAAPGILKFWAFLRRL
T5 sequence (Q9UII6 whole entry, species assumed): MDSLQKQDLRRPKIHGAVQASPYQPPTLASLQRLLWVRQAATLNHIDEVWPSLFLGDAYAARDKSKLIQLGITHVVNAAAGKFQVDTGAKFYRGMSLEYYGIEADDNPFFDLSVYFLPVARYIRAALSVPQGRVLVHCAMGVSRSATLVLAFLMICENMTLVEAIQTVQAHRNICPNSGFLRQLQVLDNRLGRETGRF

For the molecule `O=C(/C=C\Nc1cccc([N+](=O)[O-])c1)c1ccccc1` [DJ001, (Z)-3-((3-nitrophenyl)amino)-1-phenylprop-2-en-1-one], the “Supplementary Figure 1: DUSP22 activity” value in assay [1] (0.27 μg/mL DJ001) was 107 and 96 (2×); in [1] (2.7 μg/mL DJ001) it was 98 and 109 and 100. In [2], the “Supplementary Figure 1: MKP5 activity” value is 91 and 87 and 88. Moreover, the “Supplementary Figure 1: PP5 activity” value was 58 and 54 and 60 on Protein Phosphatase 5 (2.7 μg/mL DJ001); 78 and 80 and 75 on Protein Phosphatase 5 (0.27 g/mL DJ001). Further, the “inhibitory activity against Protein Phosphatase 5” value on Protein Phosphatase 5 (DJ001 at 10 μM and 1 μM) is listed as “only modest inhibitory activity”. For the same molecule, the “Supplementary Figure 1: PTP activity” value was 92 and 79 and 96 in [3] (2.7 μg/mL DJ001); 98 and 91 and 84 in assay [3] (0.27 g/mL DJ001). Besides, the “Supplementary Figure 1: TMDP activity” value in assay [4] (2.7 μg/mL DJ001) was 101; in assay [4] (0.27 g/mL DJ001), 108 and 103 (2×). For the same molecule, in the assay on BM KSL cells [5] (24 h following 500 cGy TBI), the “percentage of apoptotic BM KSL cells vs vehicle” value is recorded as “significantly decreased the percentage of apoptotic BM KSL cells”. Besides, the “Figure 3e: Annexin V/7AAD apoptosis of BM KSL cells” value with BM KSL cells [5] (24 h post 500 cGy TBI, individual mice) is 14.6 and 11.3 and 12.5 and 12.9 and 14.7 and 10.4 and 14.5 and 15.5 and 16.7. The BrdU incorporation in assay [6] (Supplementary Figure 7i) was 36.54 and 44.684 and 44.262 and 33.456. The “BrdU incorporation in donor CD45.2+ cells, DJ001 vs vehicle group” value in assay [6] (day +7 and day +21 following competitive transplantation) was “no difference in BrdU incorporation”. Moreover, the “BrdU incorporation in BM KSL cells vs vehicle” value in [6] (day +10 following 750 cGy TBI) is listed as “increased bromodeoxyuridine (BrdU) incorporation”. Moreover, the “in vitro migration of BM KSL cells through EC monolayers” value in the assay on BM KSL cells [7] (1 µg/mL DJ001, 18 h) was “did not alter the in vitro migration”. The “number of cells within the lower chambers, per replicate (Supplementary Figure 8a)” value with BM KSL cells [7] (1 µg/ml DJ001, 18 hours) was 17.5 and 8.74 and 19.1 and 21.8 and 10.9. Moreover, the cell cycle status result in the assay with BM KSL cells [8] is given as “did not alter the cell cycle status”.
